Source: PubChem BioAssay AID330 (DTP/NCI, 2004)
Several values for one entry are separate records, joined by “and”; a condition that tells them apart may be missing. Equal entries are not always repeated. Inconclusive results and toxic doses are left out.

System: P388 leukemia ip, CD2F1 mice, survival T/C
Assay: NCI In Vivo Anticancer Drug Screen. Data for tumor model P388 Leukemia (intraperitoneal) in CD2F1 (CDF1) mice
Settings: endpoint: median survival time, higher = longer survival
In short: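 Mice carrying the transplanted tumor received test compound or vehicle. Survival was recorded in each group, and the value is the treated-group measurement divided by that of the vehicle-treated control group.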

[1] = dose: 25.0 mg/kg/injection, schedule: Q01DX009 (ip), vehicle: saline with Tween-80
[2] = dose: 50.0 mg/kg/injection, schedule: Q01DX009 (ip), vehicle: saline with Tween-80
[3] = dose: 100.0 mg/kg/injection, schedule: Q01DX009 (ip), vehicle: saline with Tween-80
[4] = dose: 200.0 mg/kg/injection, schedule: Q01DX009 (ip), vehicle: saline with Tween-80
[5] = dose: 100.0 mg/kg/injection, schedule: Q04DX003 (ip), vehicle: saline with Tween-80
[6] = dose: 50.0 mg/kg/injection, schedule: Q01DX005 (ip), vehicle: saline
[7] = dose: 100.0 mg/kg/injection, schedule: Q01DX005 (ip), vehicle: saline
[8] = dose: 200.0 mg/kg/injection, schedule: Q01DX005 (ip), vehicle: saline
[9] = dose: 50.0 mg/kg/injection, schedule: Q01DX005 (ip), vehicle: saline with Tween-80
[10] = dose: 50.0 mg/kg/injection, schedule: Q01DX005 (ip), vehicle: Klucel (hydroxypropylcellulose) (HPC)
[11] = dose: 100.0 mg/kg/injection, schedule: Q01DX005 (ip), vehicle: Klucel (hydroxypropylcellulose) (HPC)
[12] = dose: 200.0 mg/kg/injection, schedule: Q01DX005 (ip), vehicle: Klucel (hydroxypropylcellulose) (HPC)

For `Cc1ccc(N(O)C(C)(C)C)cc1`, the T/C [1] was 97 % of control, the T/C (dose: 25.0 mg/kg/injection, schedule: Q04DX003 (ip), vehicle: gum acacia) was 99 % of control and the T/C [2] was 91 % of control. For the same molecule, the T/C (dose: 50.0 mg/kg/injection, schedule: Q04DX003 (ip), vehicle: gum acacia) was 100 % of control, the T/C [3] was 102 % of control and the T/C (dose: 100.0 mg/kg/injection, schedule: Q04DX003 (ip), vehicle: gum acacia) was 110 % of control. The T/C (dose: 200.0 mg/kg/injection, schedule: Q04DX003 (ip), vehicle: gum acacia) was 100 % of control.

For `CC(=O)C(C)C(C)=O`, the T/C (dose: 6.25 mg/kg/injection, schedule: Q01DX009 (ip), vehicle: saline with Tween-80) was 97 % of control, the T/C (dose: 12.5 mg/kg/injection, schedule: Q01DX009 (ip), vehicle: saline with Tween-80) was 93 % of control and the T/C [1] was 100 % of control. For the same molecule, the T/C [2] was 107 % of control, the T/C [3] was 108 % of control and the T/C [4] was 103 % of control. The T/C (dose: 400.0 mg/kg/injection, schedule: Q01DX009 (ip), vehicle: saline with Tween-80) was 110 % of control.

For `CCCCS(=O)(=O)N/N=C/C(=O)O`, the T/C (dose: 6.25 mg/kg/injection, schedule: Q01DX009 (ip), vehicle: water) was 119 % of control, the T/C (dose: 12.5 mg/kg/injection, schedule: Q01DX009 (ip), vehicle: water) was 124 % of control and the T/C (dose: 50.0 mg/kg/injection, schedule: Q01DX009 (ip), vehicle: water) was 162 % of control. For the same molecule, the T/C (dose: 100.0 mg/kg/injection, schedule: Q01DX009 (ip), vehicle: water) was 173 % of control.

`CN(C)CCO[Si](C)(C)[CH2][Sn]([CH3])([CH3])[CH3]` was tested, and the T/C (dose: 60.0 mg/kg/injection, schedule: Q01DX005 (ip), vehicle: saline) was 108 % of control and the T/C (dose: 120.0 mg/kg/injection, schedule: Q01DX005 (ip), vehicle: saline) was 105 % of control.

In the case of `CC1=C(CO)C(=O)OC(C(C)C2CCC3C4CC5OC56C(O)C(N5CC5(C)C)CC(=O)C6(C)C4CCC23C)C1` (stereo unspecified), the T/C (dose: 8.75 mg/kg/injection, schedule: Q01DX005 (ip), vehicle: Klucel (hydroxypropylcellulose) (HPC)) is reported as 108 % of control, the T/C (dose: 17.5 mg/kg/injection, schedule: Q01DX005 (ip), vehicle: Klucel (hydroxypropylcellulose) (HPC)) is reported as 99 % of control and the T/C (dose: 35.0 mg/kg/injection, schedule: Q01DX005 (ip), vehicle: Klucel (hydroxypropylcellulose) (HPC)) is reported as 99 % of control. For the same molecule, the T/C (dose: 70.0 mg/kg/injection, schedule: Q01DX005 (ip), vehicle: Klucel (hydroxypropylcellulose) (HPC)) was 108 % of control and the T/C (dose: 140.0 mg/kg/injection, schedule: Q01DX005 (ip), vehicle: Klucel (hydroxypropylcellulose) (HPC)) was 105 % of control.

With `C/C=C1/CN2CC[C@@]34c5cc([C@]67C8CCN9C/C(=C/C)[C@H](CC96)C(C(=O)OC)N7c6ccccc68)c(OC)cc5N(C)[C@H]3C2CC1C4C(=O)OC` (stereo partly specified) the T/C (dose: 5.25 mg/kg/injection, schedule: Q01DX005 (ip), vehicle: Klucel (hydroxypropylcellulose) (HPC)) was 104 % of control, the T/C (dose: 10.5 mg/kg/injection, schedule: Q01DX005 (ip), vehicle: Klucel (hydroxypropylcellulose) (HPC)) was 98 % of control and the T/C (dose: 21.0 mg/kg/injection, schedule: Q01DX005 (ip), vehicle: Klucel (hydroxypropylcellulose) (HPC)) was 90 % of control. The T/C (dose: 42.0 mg/kg/injection, schedule: Q01DX005 (ip), vehicle: Klucel (hydroxypropylcellulose) (HPC)) was 96 % of control.

For `Cc1ccnn1C(C(=O)c1ccccc1)c1ccccc1` (stereo unspecified), the T/C [2] was 108 % of control, the T/C [3] was 105 % of control and the T/C [4] was 105 % of control.

`O=C(Cl)c1ccccc1Sc1ccccc1` was tested, and the T/C [1] was 95 % of control, the T/C (dose: 25.0 mg/kg/injection, schedule: Q04DX003 (ip), vehicle: saline with Tween-80) was 100 % of control and the T/C [2] was 90 % of control. The T/C (dose: 50.0 mg/kg/injection, schedule: Q04DX003 (ip), vehicle: saline with Tween-80) was 100 % of control, the T/C [3] was 100 % of control and the T/C [5] was 100 % of control.

With `CCCCCC(O)C1C(=O)OC(C)C(O)/C=C/C=C/C=C/C=C/C=C(\C)C(O)C(O)C(O)CC(O)CC(O)CC(O)CC(O)CC1O` (stereo unspecified) the T/C (dose: 0.5 mg/kg/injection, schedule: Q01DX010 (ip), vehicle: saline) was 100 % of control, the T/C (dose: 1.0 mg/kg/injection, schedule: Q01DX010 (ip), vehicle: saline) was 100 % of control and the T/C (dose: 2.0 mg/kg/injection, schedule: Q01DX010 (ip), vehicle: saline) was 100 % of control and 90 % of control. For the same molecule, the T/C (dose: 4.0 mg/kg/injection, schedule: Q01DX010 (ip), vehicle: saline) was 90 % of control and the T/C (dose: 8.0 mg/kg/injection, schedule: Q01DX010 (ip), vehicle: saline) was 100 % of control.

`O=C(O)CC(Nc1ccc([N+](=O)[O-])cc1[N+](=O)[O-])C(=O)O` (stereo unspecified) was tested, and the T/C [6] was 100 % of control, the T/C [7] was 106 % of control and the T/C [8] was 103 % of control.

In the case of `CC(NC(=O)C(N)Cc1ccc(Cl)cc1)P(=O)(O)O` (stereo unspecified), the T/C (dose: 12.5 mg/kg/injection, schedule: Q04DX002 (ip), vehicle: saline with Tween-80) is reported as 100 % of control, the T/C (dose: 25.0 mg/kg/injection, schedule: Q04DX002 (ip), vehicle: saline with Tween-80) is reported as 94 % of control and the T/C (dose: 50.0 mg/kg/injection, schedule: Q04DX002 (ip), vehicle: saline with Tween-80) is reported as 103 % of control.

For `COc1ccc(NC(=O)C2C(=O)N(c3ccc(OC)cc3)C(=O)/C2=N/NC(N)=S)cc1` (stereo unspecified), the T/C (dose: 12.5 mg/kg/injection, schedule: Q01DX005 (ip), vehicle: saline with Tween-80) was 101 % of control, the T/C (dose: 25.0 mg/kg/injection, schedule: Q01DX005 (ip), vehicle: saline with Tween-80) was 100 % of control and the T/C [9] was 100 % of control and 90 % of control.

In the case of `CCCCCCCCCCCCOC(=O)/C=C\C(=O)NC(N)=O`, the T/C (dose: 100.0 mg/kg/injection, schedule: Q04DX002 (ip), vehicle: Klucel (hydroxypropylcellulose) (HPC)) is reported as 117 % of control and the T/C (dose: 200.0 mg/kg/injection, schedule: Q04DX002 (ip), vehicle: Klucel (hydroxypropylcellulose) (HPC)) is reported as 123 % of control.

For `CCOc1ccc(/C=C/c2ccc3ccccc3[n+]2C)cc1OCC`, the T/C (dose: 0.78 mg/kg/injection, schedule: Q01DX009 (ip), vehicle: saline with Tween-80) was 102 % of control and the T/C (dose: 1.56 mg/kg/injection, schedule: Q01DX009 (ip), vehicle: saline with Tween-80) was 111 % of control.

With `O=C1c2cccc([N+](=O)[O-])c2C(=O)c2c1oc1ccc3ccccc3c21` the T/C [10] was 104 % of control, the T/C [11] was 102 % of control and the T/C [12] was 96 % of control.

In the case of `CC1(C)CC(OC(=O)CCC(=O)OC2CC(C)(C)N(O)C(C)(C)C2)CC(C)(C)N1O`, the T/C (dose: 50.0 mg/kg/injection, schedule: Q01DX009 (ip), vehicle: suspension in saline) is reported as 100 % of control, the T/C (dose: 100.0 mg/kg/injection, schedule: Q01DX009 (ip), vehicle: suspension in saline) is reported as 100 % of control and the T/C (dose: 200.0 mg/kg/injection, schedule: Q01DX009 (ip), vehicle: suspension in saline) is reported as 96 % of control.

In the case of `Clc1nc(-c2ccccc2)nc(-c2ccccc2)n1`, the T/C (dose: 100.0 mg/kg/injection, schedule: Q04DX002 (ip), vehicle: saline) is reported as 104 % of control, the T/C (dose: 200.0 mg/kg/injection, schedule: Q04DX002 (ip), vehicle: saline) is reported as 100 % of control and the T/C (dose: 400.0 mg/kg/injection, schedule: Q04DX002 (ip), vehicle: saline) is reported as 109 % of control.

For `O=C1C(=O)N(c2ccccc2)[C@]2(c3ccccc3)C1=C(c1ccccc1)N(c1ccccc1)C(=O)N2c1ccccc1`, the T/C [9] was 97 % of control, the T/C (dose: 100.0 mg/kg/injection, schedule: Q01DX005 (ip), vehicle: saline with Tween-80) was 88 % of control and the T/C (dose: 200.0 mg/kg/injection, schedule: Q01DX005 (ip), vehicle: saline with Tween-80) was 88 % of control.

`CC1=C(C)[C@]2(C)C(C)[C@]13Cn1c(=O)n(-c4ccccc4)c(=O)n1[C@@]32C` (stereo partly specified) was tested, and the T/C [10] was 95 % of control, the T/C [11] was 94 % of control and the T/C [12] was 100 % of control.

With `CC1=NS(C)(=O)=c2ccccc2=N1` (stereo unspecified) the T/C [5] was 105 % of control, the T/C (dose: 200.0 mg/kg/injection, schedule: Q04DX003 (ip), vehicle: saline with Tween-80) was 105 % of control and the T/C (dose: 400.0 mg/kg/injection, schedule: Q04DX003 (ip), vehicle: saline with Tween-80) was 106 % of control.

In the case of `Nc1cccc2ccccc12`, the T/C [5] is reported as 94 % of control.

`c1ccc(CSC2=NCCCC2)cc1` was tested, and the T/C (dose: 100.0 mg/kg/injection, schedule: Q04DX002 (ip), vehicle: saline with Tween-80) was 98 % of control, the T/C (dose: 200.0 mg/kg/injection, schedule: Q04DX002 (ip), vehicle: saline with Tween-80) was 105 % of control and the T/C (dose: 400.0 mg/kg/injection, schedule: Q04DX002 (ip), vehicle: saline with Tween-80) was 100 % of control.

In the case of `Cn1ncc2c(N(CCO)CCO)ncnc21`, the T/C [6] is reported as 100 % of control, the T/C [7] is reported as 100 % of control and the T/C [8] is reported as 95 % of control.
